Data published in ChEMBL document CHEMBL5724564, “Patient-derived NASH model to assess the effects of chemical probes on hepatocyte regenerations” (2024).

What follows are compounds tested on Hepatocyte spheroids (assay: Cell viability is assessed by cellular ATP assay using CellTiter-Glo Luminescent kit. Viability is expressed as average RLU from biological replicates and normalized to negative control.Toxicity is defined as those with normalized ATP significantly less than 80 percent of the negative control.). Conditions: not given.
Type: functional, Homo sapiens
Set-up: unit not given here

Structure (SMILES) | Proliferation
COc1c(C)cc(NC(=O)c2nn(Cc3ccc(F)cc3)c3c2CN(C(=O)c2ccc[nH]2)C[C@]3(C)C(N)=O)cc1C | 0.06587
O=C(NOC[C@H](O)CO)c1ccc(F)c(F)c1Nc1ccc(I)cc1F [MIRDAMETINIB] | 0
Cn1cnc2c(F)c(Nc3ccc(Br)cc3Cl)c(C(=O)NOCCO)cc21 [SELUMETINIB] | 0.04298
CCNC(=O)c1cc2c(N3CCOCC3C)ccnc2[nH]1 (configuration not stated) | 0.05192
O=C(N[C@@H]1CCOC1)C1CCN(c2nc3cc(Cl)c(Cl)cc3n2-c2ccc3ccccc3n2)CC1 | 0.003884
C[C@@H]1CCN(C(=O)CC#N)C[C@@H]1N(C)c1ncnc2[nH]ccc12.O=C(O)CC(O)(CC(=O)O)C(=O)O [TOFACITINIB CITRATE] | 0.01527
CNC(=O)c1ccc(Nc2ncc(C(F)(F)F)c(NCc3nccnc3N(C)S(C)(=O)=O)n2)cc1 [DEFACTINIB] | 0.1091
CC(=O)c1cc(-c2cc(C(=O)NC3CC3)ccc2C)c2ncccn12 | 0.01914
Nc1nc2[nH]cnc2c(=S)[nH]1 [THIOGUANINE] | 0.05104
Nc1cc(N)c(NC(=O)Nc2ccc(C(=O)N[C@@H](CCC(=O)O)C(=O)O)cc2)c(=O)[nH]1 | 0.01013
O=C(Nc1ccc(I)cc1)N1CCC(n2c(=O)[nH]c3c(Br)cccc32)CC1 | 0.001093
CS(=O)(=O)Nc1cc([N+](=O)[O-])ccc1OC1CCCCC1 | 0.6769
Cc1cc2c(cc1N1C(=O)c3cccc4c(CCCO)ccc(c34)C1=O)n(C)c(=O)n2C | 0.07854
Cn1cnc2c1c(=O)n(CCCn1c(=O)c3c(ncn3C)n(C)c1=O)c(=O)n2C [BISDIONIN C] | 0.03665
NC(=O)c1ccc(N(C(N)=O)c2c(F)cccc2F)nc1-c1ccc(F)cc1F [VX-702] | 0.02591
COc1cc(Nc2ccnc3ccc(Br)cc23)cc(OC)c1OC | 0.5391
O=C(c1ccc2[nH]ccc2c1)N1CCN(S(=O)(=O)c2ccc3[nH]c(=O)oc3c2)CC1 | 0.6071
CC(=O)N1CCC(c2ccc(C(=O)NC(=N)N)cc2C(F)(F)F)CC1 [BI 9627] | 0.09817
CN1C[C@H](Nc2cnn(C)c(=O)c2Br)C[C@H](c2ccccc2)C1 | 0.003884
COc1ccccc1C(=O)Nc1cc2c(cc1N1CCNCC1C)n(C)c(=O)n2C (configuration not stated) | 0.1835

Structure (SMILES) | Proliferation
O=C(N1CCS(=O)(=O)CC1)N1C[C@H](c2ccc(OC(F)(F)F)cc2)C[C@H](c2nc(C3CC3)no2)C1 [BAY-386] | 0.02871
CC(C)c1ccc(Nc2nccc(-c3cnn4ncccc34)n2)cc1 [GW805758X] | 0.2702
O=C(O)[C@H]1[C@H](Cn2nnc3ccccc3c2=O)CC[C@@H]1C(=O)c1ccc(OCCC2CCOCC2)cc1 [BAY-7598] | 0.03535
O=S(=O)(NC1CCC(c2cc(F)ccc2F)(S(=O)(=O)c2ccc(Cl)cc2)CC1)C(F)(F)F (configuration not stated) [MRK-560] | 0.1212
CCC(=O)N[C@H]1CC[C@@H](C(=O)N(C)c2ccc(-c3nc4ccccc4o3)cc2)C1 [BI 99179] | 0.7724
Cn1cc(-c2ccc3nnc(Sc4ccc5ncccc5c4)n3n2)cn1 [SGX-523] | 0.3569
Nc1nc(NC2CC2)cc(-c2cccc(Cl)c2Cl)n1 | 0.05031
CCOc1cc(N2CCC(O)CC2)ccc1Nc1ncc2c(n1)N(C)c1ccccc1C(=O)N2C | 0.02286
COc1ccccc1-c1cc(Nc2cccc(CS(N)(=O)=O)c2)ncn1 | 0.2719
CNCCN1CCC(c2cc(CN(C)C(=O)c3cccc(Oc4ccccc4)c3)ccn2)CC1 | 0.03291
CC(=O)Nc1c(C(C)=O)c(=O)n(C)c2nc(-c3ccc(Cl)cc3Cl)c(-c3ccc(Cl)cc3)cc12 [NAPHTHYRIDINONE] | 0.005874
COc1ccccc1C(=O)Nc1cc2c(cc1N1CCCC1)n(C)c(=O)n2C | 0.003878
CN(C)C(=O)Cn1cc(-c2nc([C@@](C)(c3ccc(-c4cnc(N)nc4)cc3)C3CC3)no2)cn1 [BI 665915] | 0.119
Cc1c(NC(=O)c2ccc(C(C)(C)C)cc2)cccc1-c1cn(C)c(=O)c(Nc2ccc(C(=O)N3CCOCC3)cc2)n1 | 0.2187
C[C@@H](NC(=O)Nc1cc2[nH]ncc2c(CO)n1)c1ccccc1 [ERKi] | 0.06922
Cc1c(NC(=O)c2cc(C(N)=O)nc3cc(F)ccc23)c(C(F)(F)F)nn1Cc1ccc(C#N)cc1 [BAY-876] | 0.01262
CCCCN(CCCC)C(=O)CN1C[C@H](c2cc(OC)c3c(c2)OCO3)[C@@H](C(=O)O)[C@@H]1CC(C)(C)CCC.Cc1ccc(S(=O)(=O)O)cc1 | 0.6131
O=C1c2ccc(Nc3ccc(F)cc3F)cc2CCc2ccc(OC[C@H](O)CO)cc21 [Skepinone-L] | 0.2651
CCOCCn1cc(C(=O)Nc2ccc(-n3nc(-c4cccnc4)cc3C(F)(F)F)cn2)ccc1=O [BI 1935] | 0.3766
CCN(CC)S(=O)(=O)Nc1cccc(-c2ccc3c(NC(=O)C4CC4)n[nH]c3c2)c1 | 0.0004

Structure (SMILES) | Proliferation
CCOC(=O)c1c(/C(C#N)=C\N)c2ccc(Cl)c(Cl)c2n1C | 0.874
CSc1ccc(-c2cc3ncnc(SCC(=O)O)c3s2)cc1 | 0.882
Cc1cn(-c2cc(NC(=O)c3ccc4c(c3)CN(c3cncnc3)C[C@@H]4C)cc(C(F)(F)F)c2)cn1 | 0.4149
O=c1nc(-c2ccccn2)sc2ccccc12 [BTZO-1] | 0.08275
Cc1cc(Nc2nccc(C)n2)cc(-c2cnc([C@@]3(O)CC[C@H](C(=O)O)C(C)(C)C3)s2)c1 [MRL-SYKi] | 0
CN(C)[C@H]1CN(C2CCc3cccc(F)c32)C[C@@H]1c1ccc(N2CCN(S(C)(=O)=O)CC2)cc1 (some centres not stated) | 0
CNC(=O)Nc1ccc2c(c1)CC[C@@]21OC(=O)N(CC(=O)N(Cc2ccc(F)cc2)[C@@H](C)C(F)(F)F)C1=O [A-485] | 0.02668
CN(Cc1cnc2nc(N)nc(N)c2n1)c1ccc(C(=O)N[C@@H](CCC(=O)O)C(=O)O)cc1 [METHOTREXATE] | 0.002627
COc1cccc(CNC(=O)c2nc3scc(COCc4ccc(C(=O)O)cc4)c3c(=O)[nH]2)c1 [T-26c] | 0.5771
O=C(O)Cc1ccccc1Nc1c(Cl)cccc1Cl [DICLOFENAC] | 0.2575
CN(C)C(=O)/C(C#N)=C/c1ccc(-c2nc3cnc4[nH]ccc4c3n2C2CCCCC2)o1 | 0.07463
CC(=O)Nc1cccc(-n2c(=O)n(C3CC3)c(=O)c3c(Nc4ccc(I)cc4F)n(C)c(=O)c(C)c32)c1 [TRAMETINIB] | 0
Cn1cc(-c2ccc3c(c2)CCN3C(=O)Cc2cccc(C(F)(F)F)c2)c2c(N)ncnc21 | 0.03291
Cl.Cl.NC1(c2ccc(-c3nc4ccn5c(=O)[nH]nc5c4cc3-c3ccccc3)cc2)CCC1 | 0.5443
CCCCNc1ncc(-c2ccc(CN3CCOCC3)cn2)c(N[C@H]2CC[C@H](O)CC2)n1 | 0.01481
COc1cc(-c2cn(C)c(=O)c3cnccc23)c(OC)cc1CN(C)C | 0.1518
CCCCN(CCCC)C(=O)CN1C[C@@H](c2cc(OC)c3c(c2)OCO3)[C@H](C(=O)O)[C@H]1CC(C)(C)CCC.Cl | 0.1508
O=C(Nc1ccc2[nH]nc(-c3ccncc3)c2c1)[C@@H]1CCN(CC(=O)N2CCN(c3ccc(-c4ncccn4)cc3)CC2)C1 | 0.03313
CCn1c(-c2nonc2N)nc2c(C#CC(C)(C)O)ncc(OCC3CCCNC3)c21 (configuration not stated) | 0.006402

Same assay, conditions: Concentration range 1nM-1uM

Structure (SMILES) | Proliferation
Cl.Cl.c1ccc([C@@H]2C[C@H]2NC2CCNCC2)cc1 | 0.6494
Cc1sc2c(c1C)C(c1ccc(Cl)cc1)=NC(CC(=O)OC(C)(C)C)c1nnc(C)n1-2 (configuration not stated) | 0.001662

Same assay, conditions: Concentration range 3nM-3uM

Structure (SMILES) | Proliferation
COc1ccc(CCc2nc3cc(-c4c(C)noc4C)ccc3n2C[C@H](C)N2CCOCC2)cc1Cl | 0.2022

Same assay, conditions: Concentration range 5nM-5uM

Structure (SMILES) | Proliferation
COc1cc2c(cc1NS(=O)(=O)c1ccc(Br)cc1C)n(C)c(=O)n2C | 0.003884
CCC(=O)N1CCOc2c(cc(-c3ccc(OC)c(OC)c3)cc2OCC2CCCN(C)C2)C1 (configuration not stated) | 0.8195
Cn1cc(CCn2cnc(-c3cnn(C)c3)c2-c2ccc(C#N)cc2)cn1 | 0.05329
COc1cc2c(NC3CCN(C(C)C)CC3)nc(C3CCCCC3)nc2cc1OCCCN1CCCC1 | 0.05128
CCCc1cc(C)[nH]c(=O)c1CNC(=O)c1cc(-c2ccnc(N3CCN(C)CC3)c2)cc2c1cnn2C(C)C | 0.009822

Same assay, conditions: Concentration range 10nM-10uM

Structure (SMILES) | Proliferation
Cl.O=C([C@@H](Cc1cccc(C(F)(F)F)c1)NS(=O)(=O)c1cc(F)c2c(c1)CCNC2)N1CCCC1 | 0.01564
O=C(NCC(=O)N1CCCC1)Nc1ccc2cnccc2c1 | 0.06734
CC(C)N(CCCNC(=O)Nc1ccc(C(C)(C)C)cc1)C[C@H]1O[C@@H](n2cc(Br)c3c(N)ncnc32)[C@H](O)[C@@H]1O | 0.01234
CC(C)Oc1ccc(-c2c[nH]cc2CN(C)CCN)cc1 | 0.2793
COc1cc(C(=O)N2CC[C@@H](O)[C@@H](N)C2)cc2nc(-c3cc4ccccc4n3CC3CC3)n(C)c12.Cl | 0.09717
COc1ccccc1S(=O)(=O)Nc1ccc2c(c1)CN(C)C(=O)N2 | 0.003099
CNCCN1CCC(OCc2ccccc2)CC1 | 0.406
Clc1cc2c(NC3CCCC3)nnc(-c3ccncc3)c2cc1Cl | 0.02485
COc1cc(C#N)ccc1S(=O)(=O)Nc1ccc2c(c1)cc(C)c(=O)n2C | 0.0004
O=C(/C=C/N1C[C@H]2C[C@@H]1CN2c1ccccn1)c1ccccc1O | 0.02966
CCn1cc(-c2cccc(C(F)(F)F)c2)c2sc(C(=N)NC3CCS(=O)(=O)CC3)cc2c1=O | 0.05754
O=C(NC[C@H](O)CN1CCc2ccccc2C1)c1ccnc(NC2CCC2)c1 | 0.0004
CN1CCN(c2ccc(-c3cccc(CN4CCOCC4)c3)cc2NC(=O)c2c[nH]c(=O)cc2C(F)(F)F)CC1 | 0.001358
CCN(C(=O)CO)[C@H]1CN(/C(=N\C#N)Nc2cccc(OC(F)F)c2)N=C1c1ccc(Cl)c(Cl)c1 | 0.05466
Cc1cn(CCN2CCN(c3ccccc3-c3cc(C#N)cc(C(=O)NCCCN4CCCC4)c3)CC2)c2ccccc12 | 0.05285
